Activity calls are given as the source filed them. The rule behind the calls is not given here.
Assays:
L1210 = experiment: Cytotoxicity against mouse L1210 cells; assay type: functional, cell-based
Nucleic Acid [1] = experiment: Alkylation of cell free 32p end labeled double stranded w794 DNA at 10 uM after 48 hrs by PAGE and autoradiography; assay type: nucleic-acid assay
Nucleic Acid [2] = experiment: Alkylation of cell free 32p end labeled double stranded w794 DNA at 100 uM after 48 hrs by PAGE and autoradiography; assay type: nucleic-acid assay

Structure (SMILES) | IC50 (L1210) | Activity (Nucleic Acid [1]) | Activity (Nucleic Acid [2])
COC(=O)c1nc2c(O)cc3c(c2o1)C(CCl)CN3C(=O)OC(C)(C)C (stereo unspecified) | 550 nM |  | 
COC(=O)c1cc2c([nH]1)C(=O)C=C1N(C(=O)c3cc4cc(OC)c(OC)c(OC)c4[nH]3)C[C@H]3C[C@]123 |  | Active | inactive
COC(=O)c1nc2c(O)cc3c(c2o1)C(CCl)CN3C(=O)c1cc2cc(OC)c(OC)c(OC)c2[nH]1 (racemic) | 5.4 nM | Active | inactive
